Assay results published in US20100216886A1, “POLYMORPHS OF N2-(1,1'-BIPHENYL-4-YLCARBONYL)-N1-[2-(4-FLUOROPHENYL)-1,1-DIMETHYLETHYL]-L-ALPHA-GLUTAMINE” (Wyeth, priority 2006, published 2010).
In brackets after ≈: the same amount, converted by molar mass.

Columns and labels:
Format in all cases: physicochemical
[1] = Slurry in water at 50° C. (polymorphic transformation); details: slurry in water at 50° C. for 12-24 hr
Procedure: Powder XRD patterns comparing the starting material to polymorph pseudo Form A are shown in FIG. 34, and DSC thermograms of both batches at 50° C. are shown in FIG. 35.

[2] = Solubility in water and 2% Tw80 of samples used in toxicological formulation assessments; details: 2% Tw80
Text: Table 6 summarizes various solid-state properties of samples used in toxicological formulation assessments.

[3] = Polymorphic conversion study in aqueous media (2% Tween 80, water)
Text: Polymorphic conversion of Form A to Form B was not observed with Sample D in 2% Tween 80 or water.
Polymorph pseudo Form A was obtained from a scaled up preparation of polymorph Form A (Sample E).
The polymorphic conversion appeared to be slower in water than in the 2% Tween suspension, probably due to the lower solubility in water.
DSC data also supported this observation (FIG. 11).

[4] = Equilibrium moisture study in desiccators with saturated salt solutions (KF, XRD); details: for Moisture (%) 1-day / Moisture (%) 3-day / Moisture (%) 7-day / Moisture (%) 20-day / XRD Polymorph / Moisture (%) 4-day: room temperature; for XRD Polymorph: end of 20 days
Procedure: As a result, an equilibrium moisture study using desiccators containing saturated salt solutions for humidity control was performed. […] Samples were periodically assayed by KF titration to give the kinetic profiles. XRD analysis was performed at the end of 20 days. The data is summarized in Table 8 with kinetic and equilibrium data plotted in FIGS. 18 and 19.

Solid state stability = test: Solid state stability
Procedure: Sample F containing polymorph Form B was further investigated at 40° C./75% RH using open and closed vials for 3 months. […] Therefore, the monohydrate needs to be stored in hermetically sealed containers in order to prevent conversion to the sesquihydrate.

[5] = Dynamic Vapor Sorption (DVS) analysis; details: room temperature, 6-hour equilibration period
Text: Sample F was subject to Dynamic Vapor Sorption (DVS) analysis at room temperature. The sample was first analyzed by Karl Fischer (KF) titration containing initial moisture content of 3.7% for the monohydrate form. RH cycling started at 50% relative humidity (RH) to 100% RH and down to 0% RH and then back up to 100% RH. A 3-hour/step equilibration period was found insufficient, so the run was repeated with a 6-hour period, which was still not sufficient.
As a result, an equilibrium moisture study using desiccators containing saturated salt solutions for humidity control was performed. Sample F was incubated at 0%, 15%, 31%, 66%, 87%, and 100% RH in room temperature for up to 20 days. Samples were periodically assayed by KF titration to give the kinetic profiles. XRD analysis was performed at the end of 20 days. The data is summarized in Table 8 with kinetic and equilibrium data plotted in FIGS. 18 and 19.

CC(C)(Cc1ccc(F)cc1)NC(=O)[C@H](CCC(=O)O)NC(=O)c1ccc(-c2ccccc2)cc1 [Sample E, N^2-(1,1′-biphenyl-4-ylcarbonyl)-N^1-[2-(4-fluorophenyl)-1,1-dimethylethyl]-L-α-glutamine]
Change of powder XRD pattern or melting point / polymorphic transformation [1]: transformed to a lower melting point polymorph form
Solubility, 2% Tw80 [2]: 0.330 mg/mL (≈ 692 µM)
pH of 2% Tw80 solubility sample [2]: 5.6
Polymorphic conversion / Polymorph Form after stirring ([3]; suspension 100 mg/mL in 2% Tween 80, ambient conditions, about 0.5 hr): transformation of pseudo Form A to Form B
Polymorphic conversion / Polymorph Form after stirring ([3]; suspension 100 mg/mL in water, overnight (~18 hr), ambient conditions): transformation of pseudo Form A to Form B

CC(C)(Cc1ccc(F)cc1)NC(=O)[C@H](CCC(=O)O)NC(=O)c1ccc(-c2ccccc2)cc1 [Form B, N^2-(1,1′-biphenyl-4-ylcarbonyl)-N^1-[2-(4-fluorophenyl)-1,1-dimethylethyl]-L-α-glutamine]
Moisture (%) 1-day ([4]; 0% RH): 3.48%
Moisture (%) 3-day ([4]; 0% RH): 3.55%
Moisture (%) 7-day ([4]; 0% RH): 3.57%
Moisture (%) 20-day ([4]; 0% RH): 2.78%
XRD Polymorph ([4]; 0% RH): Pattern B, Form B
Moisture (%) 1-day ([4]; 15% RH): 3.97%
Moisture (%) 4-day ([4]; 15% RH): 3.99%
Moisture (%) 7-day ([4]; 15% RH): 3.74%
Moisture (%) 20-day ([4]; 15% RH): 3.79%
XRD Polymorph ([4]; 15% RH): Pattern B, Form B
Moisture (%) 1-day ([4]; 31% RH): 3.61%
Moisture (%) 4-day ([4]; 31% RH): 5.01%
Moisture (%) 7-day ([4]; 31% RH): 3.93%
Moisture (%) 20-day ([4]; 31% RH): 3.79%
XRD Polymorph ([4]; 31% RH): Pattern B, Form B
Moisture (%) 1-day ([4]; 47% RH): 3.81%
Moisture (%) 3-day ([4]; 47% RH): 3.73%
Moisture (%) 7-day ([4]; 47% RH): 4.00%
Moisture (%) 20-day ([4]; 47% RH): 4.19%
XRD Polymorph ([4]; 47% RH): Pattern B, Form B
Moisture (%) 1-day ([4]; 66% RH): 5.12%
Moisture (%) 4-day ([4]; 66% RH): 5.28%
Moisture (%) 7-day ([4]; 66% RH): 5.34%
Moisture (%) 20-day ([4]; 66% RH): 5.1%
XRD Polymorph ([4]; 66% RH): Pattern C, Form C
Moisture (%) 1-day ([4]; 84% RH): 5.55%
Moisture (%) 3-day ([4]; 84% RH): 5.43%
Moisture (%) 7-day ([4]; 84% RH): 5.55%
Moisture (%) 20-day ([4]; 84% RH): 5.71%
XRD Polymorph ([4]; 84% RH): Pattern C, Form C
Moisture (%) 1-day ([4]; 100% RH): 5.55%
Moisture (%) 4-day ([4]; 100% RH): 8.08%
Moisture (%) 7-day ([4]; 100% RH): 6.14%
Moisture (%) 20-day ([4]; 100% RH): 6.22%
XRD Polymorph ([4]; 100% RH): Pattern C, Form C
RH range at which the form is present by XRD ([4]; Sample F incubated at room temperature, 20 days, listed as monohydrate): 0-47 % RH
Moisture (%) T = 0 ([4]; initial, KF titration): 3.82%
HPLC Impurity (%) (Solid state stability; 40 C./75% RH Closed, 4 wk): 0.34%
KF (%) (Solid state stability; 40 C./75% RH Closed, 4 wk): 5.35%
XRD Polymorph (Solid state stability; 40 C./75% RH Closed, 4 wk): Form C Pattern C
HPLC Impurity (%) (Solid state stability; 40 C./75% RH Closed, 8 wk): 0.41%
KF (%) (Solid state stability; 40 C./75% RH Closed, 8 wk): 5.79%
XRD Polymorph (Solid state stability; 40 C./75% RH Closed, 8 wk): Form C Pattern C
HPLC Impurity (%) (Solid state stability; 40 C./75% RH Open, 4 wk): 0.36%
KF (%) (Solid state stability; 40 C./75% RH Open, 4 wk): 5.34%
XRD Polymorph (Solid state stability; 40 C./75% RH Open, 4 wk): Form C Pattern C
HPLC Impurity (%) (Solid state stability; 40 C./75% RH Open, 8 wk): 0.49%
KF (%) (Solid state stability; 40 C./75% RH Open, 8 wk): 5.53%
XRD Polymorph (Solid state stability; 40 C./75% RH Open, 8 wk): Form C Pattern C
Duration of sufficient heat stability (Solid state stability; 40° C./75% RH): at least 3 months
HPLC Impurity (%) (Solid state stability; Initial, time 0): 0.30%
KF (%) (Solid state stability; Initial, time 0): 3.82%
XRD Polymorph (Solid state stability; Initial, time 0): Form B Pattern B
RH range in which the form is stable (DVS) [5]: 0-50 % RH
